{"source": "ChEMBL document CHEMBL5465560", "about": "“Selectivity Literature for EUbOPEN Chemogenomic Library” (2024)", "key": {"[1]": {"molecular_target": "T1, Scaffold protein ILK (Homo sapiens) (UniProt Q13418)", "T1 sequence (whole entry)": "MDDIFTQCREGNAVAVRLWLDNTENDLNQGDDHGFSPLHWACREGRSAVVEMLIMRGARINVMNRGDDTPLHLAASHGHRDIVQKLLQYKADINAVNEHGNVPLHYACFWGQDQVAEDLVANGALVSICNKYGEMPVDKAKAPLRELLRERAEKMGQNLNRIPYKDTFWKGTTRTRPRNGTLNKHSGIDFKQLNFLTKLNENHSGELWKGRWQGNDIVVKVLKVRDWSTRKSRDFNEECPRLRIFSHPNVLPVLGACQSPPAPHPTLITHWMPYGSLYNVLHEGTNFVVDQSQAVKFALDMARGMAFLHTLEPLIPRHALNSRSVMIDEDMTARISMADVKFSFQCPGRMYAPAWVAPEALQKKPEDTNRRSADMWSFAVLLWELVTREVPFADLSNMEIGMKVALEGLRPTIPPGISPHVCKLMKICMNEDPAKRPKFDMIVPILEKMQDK", "assay": "Selectivity interaction (Kinase panel (KiNativ target engagement assay in Jurkat cells)) EUB0001635a ILK", "type": "cell-based", "settings": "Selectivity number of off-targets 0.0, Selectivity number of targets 233.0, Source Knowledge https://www.sciencedirect.com/science/article/pii/S2451945619300674?via%3Dihub, at 1 µM"}, "[2]": {"molecular_target": "T2, Dual specificity protein kinase TTK (Homo sapiens) (UniProt P33981)", "T2 sequence (whole entry)": "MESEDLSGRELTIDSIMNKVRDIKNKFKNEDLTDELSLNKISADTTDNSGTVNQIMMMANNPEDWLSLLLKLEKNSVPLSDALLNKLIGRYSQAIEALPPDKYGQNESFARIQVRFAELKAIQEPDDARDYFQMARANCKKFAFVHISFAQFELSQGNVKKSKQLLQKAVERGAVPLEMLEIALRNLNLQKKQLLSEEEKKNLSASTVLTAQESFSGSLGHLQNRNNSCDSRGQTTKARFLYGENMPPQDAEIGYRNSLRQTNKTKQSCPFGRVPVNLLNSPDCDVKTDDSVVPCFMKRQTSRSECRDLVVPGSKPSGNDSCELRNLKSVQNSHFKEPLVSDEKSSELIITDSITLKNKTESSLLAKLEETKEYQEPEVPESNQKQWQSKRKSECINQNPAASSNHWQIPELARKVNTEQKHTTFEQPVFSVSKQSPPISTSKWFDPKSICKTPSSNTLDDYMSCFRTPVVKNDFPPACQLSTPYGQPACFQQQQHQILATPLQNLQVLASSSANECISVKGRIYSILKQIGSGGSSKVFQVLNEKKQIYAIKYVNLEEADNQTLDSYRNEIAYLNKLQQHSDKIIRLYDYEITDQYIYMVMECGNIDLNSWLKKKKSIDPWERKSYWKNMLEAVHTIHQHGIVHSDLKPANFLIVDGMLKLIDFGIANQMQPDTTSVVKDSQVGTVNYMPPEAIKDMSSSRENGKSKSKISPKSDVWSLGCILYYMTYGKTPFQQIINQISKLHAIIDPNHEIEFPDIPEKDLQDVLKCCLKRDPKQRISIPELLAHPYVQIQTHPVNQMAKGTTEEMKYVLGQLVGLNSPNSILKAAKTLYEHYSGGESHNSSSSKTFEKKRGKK", "assay": "Selectivity interaction (KinomeScan (DiscoverX)) EUB0000595a TTK", "settings": "at 10 µM"}, "[3]": {"molecular_target": "Serine/threonine-protein kinase 24 (Homo sapiens) (UniProt Q9Y6E0)", "sequence (Q9Y6E0 whole entry, looked up)": "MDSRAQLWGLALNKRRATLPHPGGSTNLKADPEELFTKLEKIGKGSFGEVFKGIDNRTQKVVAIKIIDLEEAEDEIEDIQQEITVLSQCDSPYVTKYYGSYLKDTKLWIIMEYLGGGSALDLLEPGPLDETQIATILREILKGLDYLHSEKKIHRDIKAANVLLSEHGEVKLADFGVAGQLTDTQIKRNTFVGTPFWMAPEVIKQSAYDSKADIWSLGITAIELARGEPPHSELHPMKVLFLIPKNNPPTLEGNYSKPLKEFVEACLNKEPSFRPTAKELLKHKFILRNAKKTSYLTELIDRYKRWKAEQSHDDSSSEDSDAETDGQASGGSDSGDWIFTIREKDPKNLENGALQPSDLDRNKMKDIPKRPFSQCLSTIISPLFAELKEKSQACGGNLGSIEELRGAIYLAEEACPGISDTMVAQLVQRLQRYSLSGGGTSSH", "assay": "Selectivity interaction (KinomeScan (DiscoverX)) EUB0000045b STK24"}, "[4]": {"molecular_target": "Cyclin-dependent kinase 2/cyclin A (Homo sapiens) (UniProt P24941+P20248+P78396)", "assay": "Selectivity interaction (Kinase panel (Z-LYTE Assay)) EUB0001632a CDK2", "type": "protein-complex assay", "settings": "at 10 µM"}, "[5]": {"molecular_target": "Tyrosine-protein kinase Fyn (Homo sapiens) (UniProt P06241)", "sequence (P06241 2-537 limits assumed)": "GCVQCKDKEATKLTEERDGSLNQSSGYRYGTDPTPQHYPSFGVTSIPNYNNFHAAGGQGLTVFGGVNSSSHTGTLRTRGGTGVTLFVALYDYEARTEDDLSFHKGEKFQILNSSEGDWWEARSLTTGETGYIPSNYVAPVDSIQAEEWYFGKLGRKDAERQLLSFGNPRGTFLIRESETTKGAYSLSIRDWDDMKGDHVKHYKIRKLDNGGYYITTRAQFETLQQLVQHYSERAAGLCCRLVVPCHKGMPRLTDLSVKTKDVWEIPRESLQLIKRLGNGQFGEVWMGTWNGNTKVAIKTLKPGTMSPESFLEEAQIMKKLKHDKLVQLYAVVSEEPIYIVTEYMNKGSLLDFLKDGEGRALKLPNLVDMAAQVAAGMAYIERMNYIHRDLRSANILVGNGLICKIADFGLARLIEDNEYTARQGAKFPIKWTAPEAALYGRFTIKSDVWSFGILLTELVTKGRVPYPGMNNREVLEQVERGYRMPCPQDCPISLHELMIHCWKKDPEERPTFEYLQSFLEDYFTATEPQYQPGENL", "assay": "Selectivity interaction (Kinase screening (Upstate/Millipore)) EUB0000604a FYN"}, "[6]": {"molecular_target": "T3, NUAK family SNF1-like kinase 2 (Homo sapiens) (UniProt Q9H093)", "T3 sequence (whole entry)": "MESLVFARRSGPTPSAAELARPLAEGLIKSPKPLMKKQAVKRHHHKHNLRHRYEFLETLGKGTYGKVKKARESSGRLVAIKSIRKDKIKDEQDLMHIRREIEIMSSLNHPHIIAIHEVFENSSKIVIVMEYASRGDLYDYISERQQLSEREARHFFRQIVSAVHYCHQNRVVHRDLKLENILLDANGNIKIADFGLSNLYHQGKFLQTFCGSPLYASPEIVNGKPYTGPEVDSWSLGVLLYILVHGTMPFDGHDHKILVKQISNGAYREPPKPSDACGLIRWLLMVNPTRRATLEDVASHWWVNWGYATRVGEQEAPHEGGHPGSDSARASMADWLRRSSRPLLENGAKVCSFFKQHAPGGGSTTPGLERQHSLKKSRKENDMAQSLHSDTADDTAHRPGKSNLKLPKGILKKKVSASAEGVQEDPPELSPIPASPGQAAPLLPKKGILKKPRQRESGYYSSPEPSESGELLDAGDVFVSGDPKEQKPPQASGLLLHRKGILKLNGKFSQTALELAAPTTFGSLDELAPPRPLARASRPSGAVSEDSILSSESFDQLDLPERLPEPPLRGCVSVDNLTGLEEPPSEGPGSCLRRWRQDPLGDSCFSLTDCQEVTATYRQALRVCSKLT", "assay": "Selectivity interaction (KinomeScan (DiscoverX)) EUB0001619a NUAK2", "settings": "at 1 µM"}, "[7]": {"molecular_target": "cAMP-dependent protein kinase catalytic subunit alpha (Homo sapiens, UniProt P17612)", "assay": "Selectivity interaction (Kinase panel (literature)) EUB0001199aCl PRKACA", "settings": "at 1 µM"}, "[8]": {"molecular_target": "Tyrosine-protein kinase receptor UFO (Homo sapiens) (UniProt P30530)", "sequence (P30530 whole entry)": "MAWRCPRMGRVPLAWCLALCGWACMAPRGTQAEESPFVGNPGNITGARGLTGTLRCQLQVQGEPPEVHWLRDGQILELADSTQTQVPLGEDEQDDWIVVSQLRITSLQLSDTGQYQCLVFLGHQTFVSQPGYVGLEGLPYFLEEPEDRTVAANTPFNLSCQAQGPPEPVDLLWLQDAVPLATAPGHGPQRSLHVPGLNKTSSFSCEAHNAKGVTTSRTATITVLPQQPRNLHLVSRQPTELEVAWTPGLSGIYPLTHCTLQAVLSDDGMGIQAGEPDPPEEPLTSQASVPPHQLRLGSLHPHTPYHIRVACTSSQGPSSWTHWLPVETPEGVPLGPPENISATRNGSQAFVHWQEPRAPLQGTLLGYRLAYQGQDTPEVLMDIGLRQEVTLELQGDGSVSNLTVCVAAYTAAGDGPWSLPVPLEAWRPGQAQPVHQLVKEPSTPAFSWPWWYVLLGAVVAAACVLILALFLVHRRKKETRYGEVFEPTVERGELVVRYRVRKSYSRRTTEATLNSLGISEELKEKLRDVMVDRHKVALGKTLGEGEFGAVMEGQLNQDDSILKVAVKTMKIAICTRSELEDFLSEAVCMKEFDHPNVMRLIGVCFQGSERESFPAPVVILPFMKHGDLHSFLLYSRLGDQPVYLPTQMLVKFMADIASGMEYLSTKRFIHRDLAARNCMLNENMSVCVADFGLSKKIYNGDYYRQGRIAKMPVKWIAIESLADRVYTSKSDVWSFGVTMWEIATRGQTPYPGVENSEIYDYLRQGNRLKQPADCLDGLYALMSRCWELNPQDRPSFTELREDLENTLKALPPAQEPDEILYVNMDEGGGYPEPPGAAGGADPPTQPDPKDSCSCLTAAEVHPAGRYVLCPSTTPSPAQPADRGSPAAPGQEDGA", "assay": "Selectivity interaction (ActivX KiNativ screen (kinase selectivity in THP-1 cell lysates)) EUB0000639a AXL", "type": "subcellular", "settings": "lysate"}, "[9]": {"molecular_target": "Fibroblast growth factor receptor 4 (Homo sapiens, UniProt P22455)", "sequence (P22455 22-802 limits assumed)": "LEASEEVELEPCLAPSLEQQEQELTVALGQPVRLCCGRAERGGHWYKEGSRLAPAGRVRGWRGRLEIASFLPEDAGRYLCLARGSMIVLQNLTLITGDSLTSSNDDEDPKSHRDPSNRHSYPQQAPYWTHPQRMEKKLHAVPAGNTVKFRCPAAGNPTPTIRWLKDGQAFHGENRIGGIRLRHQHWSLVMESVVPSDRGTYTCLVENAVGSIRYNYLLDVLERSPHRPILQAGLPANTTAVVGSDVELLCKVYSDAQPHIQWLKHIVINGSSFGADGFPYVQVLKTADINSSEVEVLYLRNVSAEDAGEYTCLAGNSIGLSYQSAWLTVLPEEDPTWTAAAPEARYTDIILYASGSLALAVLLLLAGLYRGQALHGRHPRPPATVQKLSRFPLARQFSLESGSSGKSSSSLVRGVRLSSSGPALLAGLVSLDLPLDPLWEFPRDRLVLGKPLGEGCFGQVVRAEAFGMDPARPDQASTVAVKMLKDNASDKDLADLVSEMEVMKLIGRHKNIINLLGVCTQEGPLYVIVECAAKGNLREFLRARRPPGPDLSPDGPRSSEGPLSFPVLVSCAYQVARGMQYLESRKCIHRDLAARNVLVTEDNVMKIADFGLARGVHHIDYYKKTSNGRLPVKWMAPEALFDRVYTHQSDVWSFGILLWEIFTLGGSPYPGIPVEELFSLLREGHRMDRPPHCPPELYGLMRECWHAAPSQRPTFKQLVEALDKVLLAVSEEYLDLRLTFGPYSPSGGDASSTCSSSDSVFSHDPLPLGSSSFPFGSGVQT", "assay": "Selectivity interaction (KinomeScan (DiscoverX)) EUB0000092b FGFR4", "settings": "at 10 µM"}}, "data": [{"smiles": "C=CC(=O)Nc1ccc(C(=O)Nc2[nH]nc3c2CN(C(=O)N[C@H](CN(C)C)c2ccccc2)C3(C)C)cc1", "values": [{"measurement": "% of engagement", "setting": "[1]", "result": -11.5, "unit": "%"}]}, {"smiles": "COCC(=O)NC/C=C/c1ccc2ncnc(Nc3ccc(Oc4ccc(C)nc4)c(C)c3)c2c1", "note": "[CP-724714]", "values": [{"measurement": "% of control", "setting": "[2]", "result": 80, "unit": "%"}]}, {"smiles": "C=CC(=O)Nc1cc(-n2c(=O)ccc3cnc4ccc(-c5ccc(NS(C)(=O)=O)cc5)cc4c32)ccc1C", "values": [{"measurement": "% of control", "setting": "[3]; at 1 µM", "result": 100, "unit": "%"}, {"measurement": "% of control", "setting": "[3]; at 10 µM", "result": 93, "unit": "%"}]}, {"smiles": "Cn1cc(-n2cnc3c(NCc4nc5cc(Cl)c(Cl)cc5[nH]4)nc(N4CCOCC4)nc32)cn1", "values": [{"measurement": "% of control", "setting": "[4]", "result": 3.2, "unit": "%"}]}, {"smiles": "Cc1cnc(Nc2ccc(F)cc2Cl)nc1-c1c[nH]c(C(=O)N[C@H](CO)c2cccc(Cl)c2)c1", "values": [{"measurement": "% of inhibition", "setting": "[5]", "result": 11, "unit": "%"}]}, {"smiles": "N#Cc1cccc(-c2c[nH]c3ncnc(N4CCOCC4)c23)c1", "values": [{"measurement": "% of control", "setting": "[6]", "result": 18, "unit": "%"}]}, {"smiles": "CN1Cc2nccc(-c3cn(C)nc3-c3ccc(F)cc3)c2C1=O", "values": [{"measurement": "% of inhibition", "setting": "[7]", "result": 2, "unit": "%"}]}, {"smiles": "CC[C@@H]1[C@H](F)C(=O)N[C@@H]1COc1nccc2cc(C(N)=O)c(OC)cc12", "note": "[ZIMLOVISERTIB]", "values": [{"measurement": "% of inhibition", "setting": "[8]; at 0.01 µM", "result": 0.7, "unit": "%"}, {"measurement": "% of inhibition", "setting": "[8]; at 0.04 µM", "result": -4.1, "unit": "%"}, {"measurement": "% of inhibition", "setting": "[8]; at 0.2 µM", "result": 7.8, "unit": "%"}, {"measurement": "% of inhibition", "setting": "[8]; at 1 µM", "result": 27.6, "unit": "%"}, {"measurement": "% of inhibition", "setting": "[8]; at 5 µM", "result": 63.2, "unit": "%"}]}, {"smiles": "CCC(=O)N1CCN(c2ccc(-n3c(=O)ccc4cnc5ccc(-c6cnc7ccccc7c6)cc5c43)cc2C(F)(F)F)CC1", "values": [{"measurement": "% of control", "setting": "[9]", "result": 21, "unit": "%"}]}]}
